Measured values published in ChEMBL document CHEMBL4613277, “Improving the Potency of N-Aryl-2,5-dimethylpyrroles against Multidrug-Resistant and Intracellular Mycobacteria” (ACS Med Chem Lett, 2020).
Converted amounts (≈) assume the structure as drawn.

Columns and labels:
[1] = test system: Mycobacterium tuberculosis; assay: Antimycobacterial activity against multidrug resistance Mycobacterium tuberculosis CCM10.1 assessed as reduction in bacterial growth incubated for 7 days by resazurin based assay; type: functional; details: CCM10.1, 168 h
[2] = test system: Mycobacterium tuberculosis; assay: Antimycobacterial activity against multidrug resistance Mycobacterium tuberculosis CCM11.1 assessed as reduction in bacterial growth incubated for 7 days by resazurin based assay; type: functional; details: CCM11.1, 168 h

| Compound | MIC [1] | MIC [2] |
| --- | --- | --- |
| Cc1cc(CN[C@H]2C[C@@H]3CC[C@H]2C3)c(C)n1-c1ccc(Cl)cc1 | 0.0025 µg/mL (≈ 0.0076 µM) | 1 µg/mL (≈ 3.04 µM) |
| COc1ccc(-n2c(C)cc(CNC3CCCCC3)c2C)cc1 | < 0.000625 µg/mL | 0.5 µg/mL (≈ 1.6 µM) |
| Cc1cc(CNCC2CCCCC2)c(C)n1-c1ccc(Cl)cc1 | < 0.000625 µg/mL | 0.12 µg/mL (≈ 0.363 µM) |
| Cc1cc(CNC2CCCCC2)c(C)n1-c1ccc(C(C)C)cc1 | 0.00125 µg/mL (≈ 0.00385 µM) | 0.5 µg/mL (≈ 1.54 µM) |
